Source: ChEMBL document CHEMBL3751802, “Identification of six new lupane-type triterpenoids from Acanthopanax koreanum leaves and their tyrosinase inhibitory activities” (Bioorg Med Chem Lett, 2016)

How the values were obtained:
Tyrosinase = molecular target: T1, Tyrosinase (Agaricus bisporus, UniProt O42713); experiment: Inhibition of mushroom tyrosinase using L-tyrosine as substrate measured every 1 min for 20 mins by spectrophotometric assay
T1 sequence (O42713 whole entry): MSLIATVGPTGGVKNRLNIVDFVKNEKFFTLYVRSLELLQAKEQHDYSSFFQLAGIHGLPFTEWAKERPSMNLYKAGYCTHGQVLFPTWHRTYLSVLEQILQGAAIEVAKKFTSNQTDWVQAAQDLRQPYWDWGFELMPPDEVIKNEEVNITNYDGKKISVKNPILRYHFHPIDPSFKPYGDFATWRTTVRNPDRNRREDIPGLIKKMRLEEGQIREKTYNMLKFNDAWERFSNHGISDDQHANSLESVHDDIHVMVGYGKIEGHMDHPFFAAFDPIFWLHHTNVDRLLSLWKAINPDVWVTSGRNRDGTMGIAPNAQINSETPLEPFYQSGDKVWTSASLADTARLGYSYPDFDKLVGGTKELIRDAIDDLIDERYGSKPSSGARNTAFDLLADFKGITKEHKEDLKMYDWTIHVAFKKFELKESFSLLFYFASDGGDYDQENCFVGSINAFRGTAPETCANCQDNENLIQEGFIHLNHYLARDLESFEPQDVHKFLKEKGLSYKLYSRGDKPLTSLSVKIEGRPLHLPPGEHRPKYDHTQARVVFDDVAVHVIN

[1] = molecular target: T2, Tyrosinase (Agaricus bisporus) (UniProt O42713); experiment: Inhibition of mushroom tyrosinase using L-tyrosine as substrate at >12.5 uM measured every 1 min for 20 mins by spectrophotometric assay relative to control
T2 sequence (whole entry): T1 sequence (O42713 whole entry)

Compound	IC50 (Tyrosinase) [µM]	inhibition [1] [%]
C[C@]12CC[C@@H](O)[C@@](C)(C(=O)O)[C@@H]1CC[C@]1(C)[C@@H]2CC[C@@H]2[C@H]3[C@H]([C@](C)(O)CO)CC[C@]3(C(=O)O)CC[C@]21C	8.61	< 100
COC(OC)[C@H](C)[C@@H]1CC[C@]2(C(=O)O)CC[C@]3(C)[C@H](CC[C@@H]4[C@@]5(C)CC[C@@H](O)[C@@](C)(C(=O)O)[C@@H]5CC[C@]43C)[C@@H]12		< 100
C=C(CO)[C@@H]1CC[C@]2(C(=O)O)CC[C@]3(C)[C@H](C[C@@H](O)[C@@H]4[C@@]5(C)CC[C@@H](O)C(C)(C)[C@@H]5CC[C@]43C)[C@@H]12		< 100
C=C(C)[C@@H]1CC[C@]2(C(=O)O)CC[C@]3(C)[C@H](CC[C@@H]4[C@@]5(C)CC[C@@H](O)C(C)(C(=O)O)[C@@H]5CC[C@]43C)[C@@H]12 (some centres not stated)		< 100
C=C(CO)[C@@H]1CC[C@]2(C(=O)O)CC[C@]3(C)[C@H](C[C@@H](O)[C@@H]4[C@@]5(C)CC[C@@H](O)[C@@](C)(C=O)[C@@H]5CC[C@]43C)[C@@H]12	63.5	< 100
C[C@H](C=O)[C@@H]1CC[C@]2(C(=O)O)CC[C@]3(C)[C@H](CC[C@@H]4[C@@]5(C)CC[C@@H](O)[C@@](C)(C(=O)O)[C@@H]5CC[C@]43C)[C@@H]12		< 100
CC1=CC[C@@H](C(C)(C)O[C@@H]2O[C@H](CO)[C@@H](O)[C@H](O)[C@H]2O)CC1	16.9	< 100
C=C(CO)[C@@H]1CC[C@]2(C(=O)O)CC[C@]3(C)[C@H](C[C@@H](O)[C@@H]4[C@@]5(C)CC[C@@H](O)[C@@](C)(C(=O)O)[C@@H]5CC[C@]43C)[C@@H]12		< 100

Continued, values first:

IC50 (Tyrosinase) [µM]	inhibition [1] [%]	Compound
	< 100	C[C@H](CO)[C@@H]1CC[C@]2(C(=O)O)CC[C@]3(C)[C@H](CC[C@@H]4[C@@]5(C)CC[C@@H](O)[C@@](C)(C=O)[C@@H]5C[C@H](O)[C@]43C)[C@@H]12
25.8	< 100	C=C(C)[C@@H]1CC[C@]2(C(=O)O)CC[C@]3(C)[C@H](CC[C@@H]4[C@@]5(C)CC[C@@H](O)[C@@](C)(C=O)[C@@H]5CC[C@]43C)[C@@H]12
	< 100	C=C(C)[C@@H]1CC[C@]2(C(=O)O)CC[C@]3(C)[C@H](C[C@@H](O)[C@@H]4[C@@]5(C)CC[C@@H](O)C(C)(C=O)[C@@H]5CC[C@]43C)[C@@H]12 (some centres not stated)
	< 100	C[C@@]12CCC[C@@](C)(C(=O)O[C@@H]3O[C@H](CO)[C@@H](O)[C@H](O)[C@H]3O)[C@H]1CC[C@@]13C[C@H](CC[C@H]12)[C@@](O)(CO)C3
	< 100	CC(=O)[C@@H]1CC[C@]2(C(=O)O)CC[C@]3(C)[C@H](C[C@@H](O)[C@@H]4[C@@]5(C)CC[C@@H](O)C(C)(C(=O)O)[C@@H]5CC[C@]43C)[C@@H]12 (some centres not stated)
